# Results from the kinase profiling compilation of Christmann-Franck et al. (2016).
# “And” between values parts separate entries of the source, which are not always exact repeats. Equal values may be shown once.
# What was measured:
# Test in all cases: radiometric filter-binding kinase assay, Kinase HotSpot
# Conditions in all cases: compound 0.5 µM; ATP 10 µM
# TEC (human) = TEC (human) (UniProt P42680)
# LTK (human) = LTK (human) (UniProt P29376)
# FGR (human) = FGR (human) (UniProt P09769)
# PTK2 (human) = PTK2 (human) (UniProt Q05397)
# PTK2 (human), sequence (Q05397 whole entry, looked up): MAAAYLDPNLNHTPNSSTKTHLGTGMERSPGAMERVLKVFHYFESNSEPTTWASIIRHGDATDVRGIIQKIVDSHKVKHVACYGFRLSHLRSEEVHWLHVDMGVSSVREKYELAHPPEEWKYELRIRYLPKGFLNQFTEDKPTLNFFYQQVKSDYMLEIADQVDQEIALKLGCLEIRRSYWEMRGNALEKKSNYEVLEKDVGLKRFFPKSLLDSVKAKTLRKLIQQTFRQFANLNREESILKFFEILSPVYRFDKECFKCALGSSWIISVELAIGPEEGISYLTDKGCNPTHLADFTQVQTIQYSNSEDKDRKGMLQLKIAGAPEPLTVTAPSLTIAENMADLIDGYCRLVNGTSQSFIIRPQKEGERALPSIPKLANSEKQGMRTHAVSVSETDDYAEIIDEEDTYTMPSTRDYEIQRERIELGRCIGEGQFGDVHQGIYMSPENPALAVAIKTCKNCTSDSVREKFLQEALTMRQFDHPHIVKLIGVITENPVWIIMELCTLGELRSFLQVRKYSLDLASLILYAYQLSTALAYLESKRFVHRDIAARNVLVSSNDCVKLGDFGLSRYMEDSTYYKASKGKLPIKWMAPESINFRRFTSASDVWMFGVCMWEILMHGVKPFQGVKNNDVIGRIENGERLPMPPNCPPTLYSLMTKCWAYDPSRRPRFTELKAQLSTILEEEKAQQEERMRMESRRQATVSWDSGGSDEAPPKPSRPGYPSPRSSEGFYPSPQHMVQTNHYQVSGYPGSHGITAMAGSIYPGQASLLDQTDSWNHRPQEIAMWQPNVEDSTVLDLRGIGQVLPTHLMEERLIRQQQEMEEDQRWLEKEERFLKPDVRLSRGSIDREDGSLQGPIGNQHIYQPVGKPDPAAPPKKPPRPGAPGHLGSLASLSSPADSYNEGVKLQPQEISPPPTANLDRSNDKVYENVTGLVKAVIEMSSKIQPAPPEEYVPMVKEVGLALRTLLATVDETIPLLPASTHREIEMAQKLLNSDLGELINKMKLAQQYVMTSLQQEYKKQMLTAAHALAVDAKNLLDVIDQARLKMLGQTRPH
# CLK2 (human) = CLK2 (human) (UniProt P49760)
# WNK2 (human) = WNK2 (human) (UniProt Q9Y3S1)
# RPS6KA1 KD1 KD2 (human) = RPS6KA1 KD1 KD2 (human) (UniProt Q15418)
# MAPK9 (human) = MAPK9 (human) (UniProt P45984)
# MAPK10 (human) = MAPK10 (human) (UniProt P53779)
# PRKG1 (human) = PRKG1 (human) (UniProt Q13976)
# FES (human) = FES (human) (UniProt P07332)
# FES (human), sequence (P07332 whole entry, looked up): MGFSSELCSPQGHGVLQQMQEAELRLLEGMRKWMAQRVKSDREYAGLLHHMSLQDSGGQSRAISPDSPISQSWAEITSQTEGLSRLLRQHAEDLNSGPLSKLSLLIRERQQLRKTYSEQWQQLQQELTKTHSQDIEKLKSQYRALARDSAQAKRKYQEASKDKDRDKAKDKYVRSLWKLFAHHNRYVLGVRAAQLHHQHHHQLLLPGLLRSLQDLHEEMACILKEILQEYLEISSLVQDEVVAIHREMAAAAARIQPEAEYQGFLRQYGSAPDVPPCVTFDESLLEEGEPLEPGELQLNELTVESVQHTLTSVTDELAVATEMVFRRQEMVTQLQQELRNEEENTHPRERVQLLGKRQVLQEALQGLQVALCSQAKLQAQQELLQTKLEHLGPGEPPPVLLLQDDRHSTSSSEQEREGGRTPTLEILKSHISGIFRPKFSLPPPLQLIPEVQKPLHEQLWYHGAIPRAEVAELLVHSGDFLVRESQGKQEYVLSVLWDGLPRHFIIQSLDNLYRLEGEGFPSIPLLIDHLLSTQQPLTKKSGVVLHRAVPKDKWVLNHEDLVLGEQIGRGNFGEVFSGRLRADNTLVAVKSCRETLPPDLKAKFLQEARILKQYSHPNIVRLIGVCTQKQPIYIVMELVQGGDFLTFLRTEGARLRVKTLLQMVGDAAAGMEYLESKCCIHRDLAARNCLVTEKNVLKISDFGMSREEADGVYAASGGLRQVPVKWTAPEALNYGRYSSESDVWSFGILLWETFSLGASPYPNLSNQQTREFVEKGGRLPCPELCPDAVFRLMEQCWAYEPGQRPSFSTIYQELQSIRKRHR
# CLK1 (human) = CLK1 (human) (UniProt P49759)
# RPS6KB1 (human) = RPS6KB1 (human) (UniProt P23443)
# NLK (human) = NLK (human) (UniProt Q9UBE8)
# CDK4 CCND1 (human) = CDK4 CCND1 (human) (UniProt P24385+P11802)
# CAMK2D (human) = CAMK2D (human) (UniProt Q13557)
# PRKCB2 (human) = PRKCB2 (human) (UniProt P05771)
# MELK (human) = MELK (human) (UniProt Q14680)
# MELK (human), sequence (Q14680 whole entry, looked up): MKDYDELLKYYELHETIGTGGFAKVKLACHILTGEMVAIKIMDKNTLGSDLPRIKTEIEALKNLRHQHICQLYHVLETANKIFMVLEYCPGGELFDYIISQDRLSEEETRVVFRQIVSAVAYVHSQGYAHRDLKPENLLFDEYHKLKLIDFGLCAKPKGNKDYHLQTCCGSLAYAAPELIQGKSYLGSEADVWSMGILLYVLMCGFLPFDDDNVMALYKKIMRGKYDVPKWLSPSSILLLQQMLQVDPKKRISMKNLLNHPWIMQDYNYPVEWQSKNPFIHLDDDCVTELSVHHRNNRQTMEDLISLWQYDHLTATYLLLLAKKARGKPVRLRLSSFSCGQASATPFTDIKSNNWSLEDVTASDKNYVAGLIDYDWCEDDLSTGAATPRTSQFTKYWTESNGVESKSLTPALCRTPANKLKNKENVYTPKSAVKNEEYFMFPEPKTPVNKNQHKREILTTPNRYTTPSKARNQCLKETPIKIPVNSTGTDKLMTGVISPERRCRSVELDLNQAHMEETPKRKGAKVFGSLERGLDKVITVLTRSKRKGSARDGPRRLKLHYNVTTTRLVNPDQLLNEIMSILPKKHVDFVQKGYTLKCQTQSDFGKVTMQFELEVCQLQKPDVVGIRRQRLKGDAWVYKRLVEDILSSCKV
# HIPK4 (human) = HIPK4 (human) (UniProt Q8NE63)
# HIPK4 (human), sequence (Q8NE63 whole entry, looked up): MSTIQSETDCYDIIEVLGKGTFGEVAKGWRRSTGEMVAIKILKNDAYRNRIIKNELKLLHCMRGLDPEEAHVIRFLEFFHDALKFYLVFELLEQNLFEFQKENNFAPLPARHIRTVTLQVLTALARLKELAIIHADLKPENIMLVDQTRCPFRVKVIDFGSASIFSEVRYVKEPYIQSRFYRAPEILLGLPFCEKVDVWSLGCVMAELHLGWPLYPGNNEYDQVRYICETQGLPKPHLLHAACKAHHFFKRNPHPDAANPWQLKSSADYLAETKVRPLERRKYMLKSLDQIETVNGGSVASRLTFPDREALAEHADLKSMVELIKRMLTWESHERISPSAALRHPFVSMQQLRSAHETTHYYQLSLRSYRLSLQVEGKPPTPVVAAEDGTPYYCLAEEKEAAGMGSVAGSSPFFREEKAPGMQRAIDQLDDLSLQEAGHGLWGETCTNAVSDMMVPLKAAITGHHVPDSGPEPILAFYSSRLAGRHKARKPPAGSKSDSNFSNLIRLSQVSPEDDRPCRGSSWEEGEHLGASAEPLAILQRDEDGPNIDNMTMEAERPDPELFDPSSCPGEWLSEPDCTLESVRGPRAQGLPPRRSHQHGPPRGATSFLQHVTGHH
# CHEK1 (human) = CHEK1 (human) (UniProt O14757)
# BLK (human) = BLK (human) (UniProt P51451)
# BLK (human), sequence (P51451 whole entry, looked up): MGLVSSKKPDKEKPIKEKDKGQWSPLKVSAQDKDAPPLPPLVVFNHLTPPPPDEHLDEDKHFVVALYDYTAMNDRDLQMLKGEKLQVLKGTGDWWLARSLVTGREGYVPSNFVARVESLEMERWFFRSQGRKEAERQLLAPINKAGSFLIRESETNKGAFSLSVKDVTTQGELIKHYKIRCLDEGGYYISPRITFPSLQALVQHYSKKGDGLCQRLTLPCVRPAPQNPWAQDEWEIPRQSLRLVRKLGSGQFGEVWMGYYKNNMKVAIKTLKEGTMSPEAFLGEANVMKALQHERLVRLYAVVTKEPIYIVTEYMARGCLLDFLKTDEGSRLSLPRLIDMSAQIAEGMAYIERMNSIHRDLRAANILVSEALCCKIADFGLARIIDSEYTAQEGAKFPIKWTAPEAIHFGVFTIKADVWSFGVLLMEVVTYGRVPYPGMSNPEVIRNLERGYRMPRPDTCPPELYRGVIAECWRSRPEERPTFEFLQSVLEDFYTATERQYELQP
# PDGFRB (human) = PDGFRB (human) (UniProt P09619)
# MATK (human) = MATK (human) (UniProt P42679)
# MATK (human), sequence (P42679 whole entry, looked up): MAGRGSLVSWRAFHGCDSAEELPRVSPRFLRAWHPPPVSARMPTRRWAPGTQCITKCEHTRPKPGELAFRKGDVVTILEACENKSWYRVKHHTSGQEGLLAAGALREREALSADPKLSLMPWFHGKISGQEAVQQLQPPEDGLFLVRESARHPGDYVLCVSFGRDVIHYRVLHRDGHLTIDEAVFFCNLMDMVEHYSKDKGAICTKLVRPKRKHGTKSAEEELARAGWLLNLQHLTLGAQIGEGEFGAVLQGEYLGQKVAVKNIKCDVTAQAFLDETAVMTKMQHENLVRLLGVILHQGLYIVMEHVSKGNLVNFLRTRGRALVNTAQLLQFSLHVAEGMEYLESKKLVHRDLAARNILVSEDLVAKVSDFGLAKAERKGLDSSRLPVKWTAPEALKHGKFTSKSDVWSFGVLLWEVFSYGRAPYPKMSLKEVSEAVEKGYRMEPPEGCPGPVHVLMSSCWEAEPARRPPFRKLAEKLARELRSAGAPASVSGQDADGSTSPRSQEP
# LCK (human) = LCK (human) (UniProt P06239)
# HCK (human) = HCK (human) (UniProt P08631)
# PKN1 (human) = PKN1 (human) (UniProt Q16512)
# PRKCA (human) = PRKCA (human) (UniProt P17252)
# ACVR1 (human) = ACVR1 (human) (UniProt Q04771)
# ULK2 (human) = ULK2 (human) (UniProt Q8IYT8)
# MERTK (human) = MERTK (human) (UniProt Q12866)
# NEK6 (human) = NEK6 (human) (UniProt Q9HC98)
# FYN (human) = FYN (human) (UniProt P06241)
# CDK3 CCNE1 (human) = CDK3 CCNE1 (human) (UniProt Q00526+P24864)
# EPHA3 (human) = EPHA3 (human) (UniProt P29320)
# RPS6KA6 KD1 KD2 (human) = RPS6KA6 KD1 KD2 (human) (UniProt Q9UK32)
# MYLK (human) = MYLK (human) (UniProt Q15746)
# CDK6 CCND1 (human) = CDK6 CCND1 (human) (UniProt Q00534+P24385)
# CHUK (human) = CHUK (human) (UniProt O15111)
# MAP4K4 (human) = MAP4K4 (human) (UniProt O95819)
# CSNK1G2 (human) = CSNK1G2 (human) (UniProt P78368)
# MAP3K9 (human) = MAP3K9 (human) (UniProt P80192)
# TNK2 (human) = TNK2 (human) (UniProt Q07912)
compound,measurement,setting,value
O=C(CCCc1ccc(-c2ccccc2F)cc1)Nc1ccc(O)cc1,residual activity,TEC (human),86%
same,residual activity,LTK (human),106%
same,residual activity,FGR (human),96%
same,residual activity,PTK2 (human),102%
same,residual activity,CLK2 (human),103%
same,residual activity,WNK2 (human),106%
same,residual activity,RPS6KA1 KD1 KD2 (human),102%
same,residual activity,MAPK9 (human),106%
same,residual activity,MAPK10 (human),100%
same,residual activity,PRKG1 (human),95.5% and 99.9%
same,residual activity,FES (human),100%
same,residual activity,CLK1 (human),101%
same,residual activity,RPS6KB1 (human),102%
same,residual activity,NLK (human),101%
same,residual activity,CDK4 CCND1 (human),102%
same,residual activity,CAMK2D (human),108%
same,residual activity,PRKCB2 (human),102%
same,residual activity,MELK (human),95.5%
same,residual activity,HIPK4 (human),105%
same,residual activity,CHEK1 (human),98.8%
same,residual activity,BLK (human),101%
same,residual activity,PDGFRB (human),98.2%
same,residual activity,MATK (human),92.2%
same,residual activity,LCK (human),95.5%
same,residual activity,HCK (human),93.5%
same,residual activity,PKN1 (human),105%
same,residual activity,PRKCA (human),100%
same,residual activity,ACVR1 (human),95.2%
same,residual activity,ULK2 (human),116%
same,residual activity,MERTK (human),98.8%
same,residual activity,NEK6 (human),99.4%
same,residual activity,FYN (human),94.7%
same,residual activity,CDK3 CCNE1 (human),92.6%
same,residual activity,EPHA3 (human),100%
same,residual activity,RPS6KA6 KD1 KD2 (human),105%
same,residual activity,MYLK (human),98.6%
same,residual activity,CDK6 CCND1 (human),98.2%
same,residual activity,CHUK (human),97.3%
same,residual activity,MAP4K4 (human),92.9%
same,residual activity,CSNK1G2 (human),99.4%
same,residual activity,MAP3K9 (human),100%
same,residual activity,TNK2 (human),99.2%
O=C(O)/C=C/c1cc(Br)c(Br)c(Br)c1Br,residual activity,TEC (human),107%
same,residual activity,LTK (human),94.5%
same,residual activity,FGR (human),98.4%
same,residual activity,PTK2 (human),94%
same,residual activity,CLK2 (human),85%
same,residual activity,WNK2 (human),93%
same,residual activity,RPS6KA1 KD1 KD2 (human),90.5%
same,residual activity,MAPK9 (human),96.4%
same,residual activity,MAPK10 (human),96.3%
same,residual activity,PRKG1 (human),78.9% and 89%
same,residual activity,FES (human),88.8%
same,residual activity,CLK1 (human),98.5%
same,residual activity,RPS6KB1 (human),91.4%
same,residual activity,NLK (human),99.1%
same,residual activity,CDK4 CCND1 (human),89.3%
same,residual activity,CAMK2D (human),77.7%
same,residual activity,PRKCB2 (human),84.7%
same,residual activity,MELK (human),91%
same,residual activity,HIPK4 (human),102%
same,residual activity,CHEK1 (human),135%
same,residual activity,BLK (human),95.1%
same,residual activity,PDGFRB (human),96%
same,residual activity,MATK (human),87.2%
same,residual activity,LCK (human),99.3%
same,residual activity,HCK (human),99.9%
same,residual activity,PKN1 (human),85.5%
same,residual activity,PRKCA (human),79%
same,residual activity,ACVR1 (human),92.1%
same,residual activity,ULK2 (human),80.3%
same,residual activity,MERTK (human),92.4%
same,residual activity,NEK6 (human),102%
same,residual activity,FYN (human),97.9%
same,residual activity,CDK3 CCNE1 (human),98.3%
same,residual activity,EPHA3 (human),92.3%
same,residual activity,RPS6KA6 KD1 KD2 (human),86.9%
same,residual activity,MYLK (human),83.3%
same,residual activity,CDK6 CCND1 (human),102%
same,residual activity,CHUK (human),89.5%
same,residual activity,MAP4K4 (human),63.5%
same,residual activity,CSNK1G2 (human),90.1%
same,residual activity,MAP3K9 (human),101%
same,residual activity,TNK2 (human),110%
CC(C)c1nn(-c2c(Cl)cccc2Cl)c2nc(Cc3ccc(OCCO)cc3)nc(O)c12,residual activity,TEC (human),105%
same,residual activity,LTK (human),87.4%
same,residual activity,FGR (human),92%
same,residual activity,PTK2 (human),103%
same,residual activity,CLK2 (human),44%
same,residual activity,WNK2 (human),95.7%
same,residual activity,RPS6KA1 KD1 KD2 (human),91.3%
same,residual activity,MAPK9 (human),96.5%
same,residual activity,MAPK10 (human),109%
same,residual activity,PRKG1 (human),92.3% and 99%
same,residual activity,FES (human),97.1%
same,residual activity,CLK1 (human),94.7%
same,residual activity,RPS6KB1 (human),94.8%
same,residual activity,NLK (human),97.6%
same,residual activity,CDK4 CCND1 (human),86.8%
same,residual activity,CAMK2D (human),85.7%
same,residual activity,PRKCB2 (human),96.7%
same,residual activity,MELK (human),84%
same,residual activity,HIPK4 (human),94.7%
same,residual activity,CHEK1 (human),96.2%
same,residual activity,BLK (human),98.8%
same,residual activity,PDGFRB (human),98.9%
same,residual activity,MATK (human),91.1%
same,residual activity,LCK (human),88.6%
same,residual activity,HCK (human),94.7%
same,residual activity,PKN1 (human),97%
same,residual activity,PRKCA (human),89.9%
same,residual activity,ACVR1 (human),94.7%
same,residual activity,ULK2 (human),86.6%
same,residual activity,MERTK (human),96.1%
same,residual activity,NEK6 (human),105%
same,residual activity,FYN (human),102%
same,residual activity,CDK3 CCNE1 (human),6.14%
same,residual activity,EPHA3 (human),86.2%
same,residual activity,RPS6KA6 KD1 KD2 (human),84.8%
same,residual activity,MYLK (human),98.3%
same,residual activity,CDK6 CCND1 (human),19.8%
same,residual activity,CHUK (human),98.5%
same,residual activity,MAP4K4 (human),84.5%
same,residual activity,CSNK1G2 (human),95.7%
same,residual activity,MAP3K9 (human),95.7%
same,residual activity,TNK2 (human),98.9%
COc1ccc(OC)c2c(=S)c3ccccc3[nH]c12,residual activity,TEC (human),147%
same,residual activity,LTK (human),84.5%
same,residual activity,FGR (human),90.8%
same,residual activity,PTK2 (human),106%
same,residual activity,CLK2 (human),81.2%
same,residual activity,WNK2 (human),89.8%
same,residual activity,RPS6KA1 KD1 KD2 (human),94.6%
same,residual activity,MAPK9 (human),102%
same,residual activity,MAPK10 (human),108%
same,residual activity,PRKG1 (human),101% and 94.4%
same,residual activity,FES (human),102%
same,residual activity,CLK1 (human),98.4%
same,residual activity,RPS6KB1 (human),99.4%
same,residual activity,NLK (human),98.8%
same,residual activity,CDK4 CCND1 (human),93.5%
same,residual activity,CAMK2D (human),89.8%
same,residual activity,PRKCB2 (human),106%
same,residual activity,MELK (human),96.6%
same,residual activity,HIPK4 (human),97.3%
same,residual activity,CHEK1 (human),92.7%
same,residual activity,BLK (human),96.5%
same,residual activity,PDGFRB (human),98.1%
same,residual activity,MATK (human),89.5%
same,residual activity,LCK (human),94.7%
same,residual activity,HCK (human),95.8%
same,residual activity,PKN1 (human),109%
same,residual activity,PRKCA (human),95.7%
same,residual activity,ACVR1 (human),99.2%
same,residual activity,ULK2 (human),94.7%
same,residual activity,MERTK (human),86.7%
same,residual activity,NEK6 (human),101%
same,residual activity,FYN (human),101%
same,residual activity,CDK3 CCNE1 (human),87.7%
same,residual activity,EPHA3 (human),94.9%
same,residual activity,RPS6KA6 KD1 KD2 (human),85.2%
same,residual activity,MYLK (human),89.8%
same,residual activity,CDK6 CCND1 (human),102%
same,residual activity,CHUK (human),94.3%
same,residual activity,MAP4K4 (human),101%
same,residual activity,CSNK1G2 (human),103%
same,residual activity,MAP3K9 (human),102%
same,residual activity,TNK2 (human),96.3%
